# Biological target: New Delhi metallo-β-lactamase subclass 1 (NDM-1) (Klebsiella pneumoniae, UniProt C7C422)
# Test: 1H NMR monitoring of hydrolysis in E. coli cells expressing NDM-1
# Format: cell-based
# New Delhi metallo-β-lactamase subclass 1 (NDM-1), sequence (C7C422 29-270, looked up): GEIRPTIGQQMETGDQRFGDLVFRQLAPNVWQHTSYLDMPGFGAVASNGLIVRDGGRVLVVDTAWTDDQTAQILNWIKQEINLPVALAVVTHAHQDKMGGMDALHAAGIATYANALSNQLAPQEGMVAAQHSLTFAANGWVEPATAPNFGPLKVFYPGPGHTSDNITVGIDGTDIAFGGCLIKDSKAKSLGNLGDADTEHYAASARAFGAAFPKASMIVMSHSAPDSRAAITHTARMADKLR
smiles,measurement,value
C[C@@H](O)[C@H]1C(=O)N2C(C(=O)O)=C(SCCN=CN)C[C@H]12 [imipenem],1H NMR monitoring of hydrolysis in E. coli cells expressing NDM-1,These were readily hydrolyzed by the NDM-1 E. coli cells within an hour or so under our experimental conditions
